*1 amine or outer side, *2 acyl side, *3 side chain or, on linkers, in order; H or OH if unused. Where a SMILES comes first, the peptide text is derived from it. Bridges are numbered along the chain shown (N, C = ends). [ ]: non-standard residue; d: D form. The star is where a group is joined. X1 = CC[C@H](C)[C@@H](N[*:1])[C@@H](O)CC(=O)O[C@H](C(=O)[C@H](C)C(=O)[*:2])C(C)C; NMeY = CN[C@@H](Cc1ccc(O)cc1)C(=O)O; dNMeL = CN[C@H](CC(C)C)C(=O)O; Pyruvoyl = CC(=O)C(=O)*
Columns and labels:
[1] = system: three tumor cell lines selected for resistance to plitidepsin
Experimental: In all cases eEF1A2 protein levels were analyzed by Western Blot as shown in the right hand side of each graph. ● wild type cells, ○ APL-R cells.
HeLa cervix adenocarcinoma (ATCC CCL-2), K-562 chronic myelogenous leukemia (ATCC CCL-243), NCI-H460 lung cancer (ATCC HTB-177) and HGC27 gastric cancer (ATCC CRL-2506) cells were obtained from ATCC (Manassas, VA, USA) and cultured following standard procedures. Viability assays were performed utilizing 3-(4,5-dimethylthiazol-2-yl)-2,5-diphenyltetrazolium bromide (MTT) according to methods described elsewhere.

[2] = system: p38, ERK and JNK phosphorylation in HeLa-APL-R cells expressing eEF1A2-GFP; test: Signaling (Western blot) in HeLa-APL-R expressing eEF1A2-GFP; type: cell-based, human; conditions: plitidepsin 450 nM
Experimental: (A) HeLa and HeLa-APL-R cells were stably transfected with an expression vector encoding for eEF1A2-GFP fusion protein. Clones homogeneously expressing the GFP were selected. The levels of expression of eEF1A2 were analyzed by Western blot using specific antibodies. The position of the endogenous and the GFP-fusion proteins are indicated. […] Levels of expression attained after transfection were similar to the endogenous levels. […] Concentration-response curves were performed at 72 h. Cell growth was determined by the MTT method and expressed as percentage of control cell survival.
(§1) For transfection and selection of cell clones, HeLa and HeLa-APL-R cells were seeded in 24 well plates at 40% confluence and allowed to stand for 24 hours at 37 °C and 5% CO2. Before transfection, the culture medium was changed to Opti-MEM (Life Technologies, Carlsbad, CA, USA). Plasmids encoding eEF1A2-GFP were incubated with Lipofectamine (Life Technologies, Carlsbad, CA, USA) under the recommendations of the manufacturer and added to the cell medium. After 24 h incubation at 37 °C and 5% CO2, the culture medium was replaced by the standard DMEM supplemented with 2 mg/ml of G-418 for the selection of clones expressing the exogenous gene. Clones were further selected following the expression of the GFP-fused protein through fluorescence microscopy.

[3] = system: CHRM1 (M1 muscarinic acetylcholine receptor); test: PathHunter CHRM1 activation; type: cell-based; conditions: data not shown
Excerpt: For example, it is known that eEF1A is able to directly increase the activity of sphingosine kinase-1 (SK1), an effect that is related to oncogenesis. […] The hijacking of eEF1A with the consequent reduction of SK1 activity has already been described as a biological mechanism in dengue virus type-2 infected cells. Another example is the specific binding of eEF1A2 to the i3 loop of M4, but not M1, muscarinic acetylcholine receptor[40]. This direct interaction with M4 regulates its cell membrane density and activity. […] This is due to a specific interaction of eEF1A with aberrant polypeptides named defective ribosomal products (DRiPs) that are ligated to multi-ubiquitin chains following translation damage; eEF1A also plays a role in sensing DRiP accumulation when the proteasome is inhibited.

human leukemic cells = conditions: cited from earlier work
Excerpt: The high affinity of this interaction is in consonance with the nanomolar antiproliferative potency of this compound, also observed in many previous reports (for a review see ref. [10]).

multiple myeloma cells = conditions: cited from earlier work
Excerpt: For example, it is known that eEF1A is able to directly increase the activity of sphingosine kinase-1 (SK1), an effect that is related to oncogenesis. […] The hijacking of eEF1A with the consequent reduction of SK1 activity has already been describe ...

[4] = system: sphingosine kinase-1 (SK1); test: Direct effect on SK1; type: biochemical; conditions: preliminary, data not shown
[5] = system: HeLa cervical cancer cells; set-up: method as in PMID 15365569; conditions: HeLa parental cells, 72 h, Fig. 1A; reported as previously described; cited from earlier work
[6] = system: K-562 chronic myelogenous leukemia cells; test: Cell growth inhibition (72 h), K-562; type: cell-based; conditions: K-562, 72 h
[7] = system: NCI-H460 non-small cell lung cancer cells; test: Cell growth inhibition (MTT, 72 h), NCI-H460; type: cell-based; conditions: parental NCI-H460, 72 h
Experimental: HeLa cervix adenocarcinoma (ATCC CCL-2), K-562 chronic myelogenous leukemia (ATCC CCL-243), NCI-H460 lung cancer (ATCC HTB-177) and HGC27 gastric cancer (ATCC CRL-2506) cells were obtained from ATCC (Manassas, VA, USA) and cultured following standard procedures. Viability assays were performed utilizing 3-(4,5-dimethylthiazol-2-yl)-2,5-diphenyltetrazolium bromide (MTT) according to methods described elsewhere[46].

[8] = target: eEF1A2 purified from rabbit muscle (Oryctolagus cuniculus, UniProt Q71V39); conditions: saturation binding, Swillens fit
Experimental: (A) Saturation binding curve. Protein and radioligand were incubated for 1 h at room temperature and samples were processed as described in the text. […] The experiment was performed as described in the text, and the experimental points were fitted to a single exponential decay equation by non-linear regression. […] Extracts were then digested with the indicated concentrations of subtilisin for 30 min at room temperature. Samples were resolved by SDS-PAGE and the degradation of eEF1A2 analyzed by Western blot; quantitation of the bands from the DARTS assay was performed with the ImageJ software.

[9] = system: HGC27-APL-R gastric carcinoma cells (plitidepsin-resistant); test: Cell growth inhibition (MTT, 72 h), HGC27-APL-R; type: cell-based; conditions: highest concentration tested 100 nM
eEF1A2 = test: GDP/GTP exchange in eEF1A2; type: biochemical; conditions: with EF1B, data not shown
[10] = system: signaling events in HeLa-APL-R cells; conditions: HeLa-APL-R versus parental HeLa; cited from earlier work
Excerpt: In contrast, HeLa cells ectop ...

[11] = system: HeLa cells ectopically overexpressing eEF1A2-GFP; test: Antiproliferative activity in HeLa overexpressing eEF1A2-GFP; type: cell-based, human; conditions: HeLa overexpressing eEF1A2-GFP (Supplementary Figure 1)
Experimental: as §1
LEGENDS TO SUPPL EMENTARY FI GURES
HeLa and HeLa-APL -R cells.
autofluorescence AF (grey).
GFP at different concentrations identified in the phasor plot.
Supplementary Figure 3. FRET efficiency estimation from FRET “Dn” and FRET
of incubation with 10 nM plitidepsin- DMAC. Clusters of phasors corresponding to the […]

Chain of eEF1A2 purified from rabbit muscle (Q71V39 whole entry): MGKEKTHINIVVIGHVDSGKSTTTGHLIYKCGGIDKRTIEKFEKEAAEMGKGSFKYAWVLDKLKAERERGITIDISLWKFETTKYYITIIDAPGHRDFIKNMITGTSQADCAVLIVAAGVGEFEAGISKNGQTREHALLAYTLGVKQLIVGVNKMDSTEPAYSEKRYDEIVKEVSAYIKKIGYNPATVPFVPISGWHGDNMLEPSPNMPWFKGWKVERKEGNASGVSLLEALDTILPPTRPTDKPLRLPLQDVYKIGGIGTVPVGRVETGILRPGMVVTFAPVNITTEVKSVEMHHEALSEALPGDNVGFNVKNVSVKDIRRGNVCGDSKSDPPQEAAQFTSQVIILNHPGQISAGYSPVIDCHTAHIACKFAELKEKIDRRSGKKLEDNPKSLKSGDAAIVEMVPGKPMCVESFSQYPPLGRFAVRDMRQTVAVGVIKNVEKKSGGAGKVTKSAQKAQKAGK

CC[C@H](C)[C@H]1NC(=O)[C@@H](NC(=O)[C@@H](CC(C)C)N(C)C(=O)[C@@H]2CCCN2C(=O)C(C)=O)[C@@H](C)OC(=O)[C@H](Cc2ccc(OC)cc2)N(C)C(=O)[C@@H]2CCCN2C(=O)[C@H](CC(C)C)NC(=O)[C@@H](C)C(=O)[C@H](C(C)C)OC(=O)C[C@@H]1O [plitidepsin, Plitidepsin] (Pyruvoyl-P[dNMeL]T[X1]LP[NMeY](Me); ester 3-C (inferred))
fold resistance to plitidepsin versus parental cells [1]: at least 100 fold
phosphorylation of p38, ERK and JNK [2]: led to phosphorylation of p38, ERK and JNK
effect on CHRM1 [3]: did not affect CHRM1
effect of cytochalasin B and jasplakinolide pretreatment on apoptotic response (human leukemic cells; 10 nM plitidepsin, actin-binding agents): prevented
effect of cycloheximide pretreatment on apoptotic response (human leukemic cells; 10 nM plitidepsin, cycloheximide at concentrations that inhibit protein synthesis): not to be affected
apoptotic response (human leukemic cells; human leukemic cells, 10 nM): fast and complete apoptotic response
combination effect with bortezomib (multiple myeloma cells; with bortezomib): synergistic
combination effect with lenalidomide (multiple myeloma cells; with lenalidomide): synergistic
combination effect with thalidomide (multiple myeloma cells; with thalidomide): synergistic
direct effect on SK1 [4]: not due to a direct effect of the drug on SK1
IC50 [5]: 1 nM
IC50 [6]: 9.35 nM
IC50 [7]: 0.2 nM
Kd ([8]; [14C]-plitidepsin 0.1 to 4 μM, 100 nM rabbit eEF1A2, 1 μM Gpp(NH)p, pH 7.5, 5% DMSO, 1 h, room temperature, filtration, triplicate): 79 ± 30 nM
Bmax ([8]; [14C]-plitidepsin, 1 h, room temperature): 0.7 mol per mol of protein
alpha (ratio between non-specifically bound ligand and free ligand) ([8]; [14C]-plitidepsin): 0.014 ± 0.0005
effect on cell growth [9]: did not cause any effect on cell growth
effect on GDP/GTP exchange in eEF1A2 (eEF1A2): very modest
signaling events triggered by plitidepsin [10]: completely lost
additional sensitization to the drug [11]: did not show any additional sensitization
